Data from article PMC5013675, “Nucleotide binding by the widespread high-affinity cyclic di-GMP receptor MshEN domain” (Nature Communications, 2016).
pKd: −log10 of the molar value. Values joined by “and” are separate entries in the source; they are usually repeats but may differ in a detail not shown here. Equal values may be shown once.

How the values were obtained:
[1] = target: VcMshEN1-145 (wild type) (Vibrio cholerae, UniProt Q9KUV7); test: biochemical; format: binding
[2] = tested on: VcMshEN wild type; format: binding, Vibrio cholerae
[3] = target: VcMshEN G40I (Vibrio cholerae, UniProt Q9KUV7, G40I); format: binding
[4] = target: D. geothermalis PilB_3 (ABF44566 301-475); test: ITC titration of D. geothermalis PilB_3 with c-di-GMP; format: binding, Deinococcus geothermalis; settings: ABF44566_III, ND = not detectable
[5] = target: P. aeruginosa PA3740 (AAG07127); settings: cited from earlier work
[6] = target: GST (Schistosoma japonicum, UniProt P08515); test: ITC control, GST alone with c-di-GMP; format: binding
[7] = target: Aeromonas veronii CheA (EKB11881 261-390); format: binding; settings: read-out: Dissociation constant (KD)
[8] = target: MshEN analogues, diverse bacterial proteins with the c-di-GMP-binding motif; settings: read-out: binding constants
[9] = target: V. cholerae MshEN_N1-65 (Vibrio cholerae, UniProt Q9KUV7); test: biochemical; format: binding
[10] = target: T1, D. geothermalis PilB_2 (ABF44566 151-300) (Deinococcus geothermalis, UniProt Q1J1R8); test: ITC titration of D. geothermalis PilB_2 with c-di-GMP; format: binding
T1 sequence (Q1J1R8 151-300): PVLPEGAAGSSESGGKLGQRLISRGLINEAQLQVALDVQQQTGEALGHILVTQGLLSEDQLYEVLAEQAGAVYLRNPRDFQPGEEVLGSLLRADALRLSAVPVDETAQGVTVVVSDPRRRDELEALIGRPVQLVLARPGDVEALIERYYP

[11] = tested on: full-length MshE protein (ATPase); settings: cited from earlier work
[12] = target: T2, Moorella thermoacetica GspE (ABC19863 1-141) (Neomoorella thermoacetica, UniProt A0AAC9HIF0); test: ITC titration of Moorella thermoacetica GspE MshEN with c-di-GMP; format: binding
T2 sequence (A0AAC9HIF0 1-141): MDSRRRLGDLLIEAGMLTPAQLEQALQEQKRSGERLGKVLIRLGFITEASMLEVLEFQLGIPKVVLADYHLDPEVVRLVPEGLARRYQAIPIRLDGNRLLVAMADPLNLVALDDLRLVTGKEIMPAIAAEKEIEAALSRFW

**Q.** For c-di-AMP, which “Dissociation constant (KD)” value [1] is on record?
**A.** non-detectable

**Q.** And the KD [1]?
**A.** non-detectable

**Q.** Which “Binding to the MshEN domain” value [2] does the source give for cGMP here?
**A.** cannot bind

**Q.** What does the source list for `Nc1nc2c(ncn2[C@@H]2O[C@@H]3CO[P@](=O)(O)O[C@H]4[C@@H](O)[C@H](n5cnc6c(=O)[nH]c(N)nc65)O[C@@H]4CO[P@](=O)(O)O[C@H]3[C@H]2O)c(=O)[nH]1` [c-di-GMP, Cyclic dimeric GMP]?
**A.** Fold change of KD [3]: 72.0; Dissociation constant (KD) [4]: completely lost it binding affinity; pKd [5]: ~7.52; c-di-GMP binding [6]: no c-di-GMP binding; pKd [7]: 5.59; pKd [8]: ~6.30; pKd [9]: 6.46; Ligand/protein ratio [9]: 0.99; pKd [1]: 6.30; Ligand/protein ratio [10]: 1.01; pKd ([10]; KD, middle domain of PilB (ABF44566)): 7.85 and 7.87; Stimulation of ATPase activity by external c-di-GMP [11]: < 10%; Melting temperature Tm, + c-di-GMP [2]: 71 ºC; Melting temperature increase [2]: 9 º; Tm Difference (+ c-di-GMP minus absence) [2]: 10 ºC; Ligand/protein ratio [12]: 1.01; pKd ([12]; read-out: Dissociation constant (KD)): 6.34
